Data on 52 compounds can be found in patent US10919885B2, “Compounds and uses thereof” (Yumanity Therapeutics, Inc., priority 2018, dated 2021).

One test deals with human SCD1 (Homo sapiens (Human), UniProt O00767). As to the kind of experiment: Yeast growth assay, strain expressing human SCD1 as the sole desaturase (reduced growth as surrogate for SCD inhibition). The format is cell-based. Conditions: yeast with OLE1 deleted expressing human SCD1 from a plasmid; growth read as OD600 after 40 h at 30° C.; top drug concentration 33.3 μM. The procedure, abridged:
(§1)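 Yeast lacking OLE1 depend on plasmid-borne human SCD1 or SCD5 and are tested in SD-Ura medium without oleic/palmitoleic acid or Tween.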

The next test concerns the target human SCD5 (Homo sapiens (Human), UniProt Q86SK9). The test is described as follows: Yeast growth assay, strain expressing human SCD5 as the sole desaturase (reduced growth as surrogate for SCD inhibition). The format is cell-based. Conditions: yeast with OLE1 deleted expressing human SCD5 from a plasmid; growth read as OD600 after 40 h at 30° C.; top drug concentration 33.3 μM. The procedure, abridged:
as §1

Counter-ions that a name gives are not always drawn.

Chain of human SCD1 (O00767 whole entry): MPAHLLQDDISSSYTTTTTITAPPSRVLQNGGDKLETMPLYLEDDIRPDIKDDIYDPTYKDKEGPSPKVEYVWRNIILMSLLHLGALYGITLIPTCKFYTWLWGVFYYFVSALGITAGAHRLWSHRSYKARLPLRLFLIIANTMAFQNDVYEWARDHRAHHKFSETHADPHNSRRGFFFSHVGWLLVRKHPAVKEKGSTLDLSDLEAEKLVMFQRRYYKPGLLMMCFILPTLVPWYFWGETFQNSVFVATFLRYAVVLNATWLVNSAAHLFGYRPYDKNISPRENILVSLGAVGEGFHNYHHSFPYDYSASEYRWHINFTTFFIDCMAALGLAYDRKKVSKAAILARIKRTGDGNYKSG
Chain of human SCD5 (Q86SK9 whole entry): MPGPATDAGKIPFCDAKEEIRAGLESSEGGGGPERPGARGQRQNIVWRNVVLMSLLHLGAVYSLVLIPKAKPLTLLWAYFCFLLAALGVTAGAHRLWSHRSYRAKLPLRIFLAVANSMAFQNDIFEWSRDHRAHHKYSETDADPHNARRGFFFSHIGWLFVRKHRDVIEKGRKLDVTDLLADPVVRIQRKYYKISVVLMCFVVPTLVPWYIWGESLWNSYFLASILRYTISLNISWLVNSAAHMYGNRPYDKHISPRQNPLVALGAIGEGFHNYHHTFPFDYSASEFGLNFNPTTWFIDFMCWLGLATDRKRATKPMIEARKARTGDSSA

In the case of `Cc1nn(C)c2cc(-c3cc(C(=O)N4CCN(c5ccccc5)CC4)no3)ccc12` [Compound 278], the 50% inhibitory concentration (IC50) against human SCD1 and at human SCD5 was greater than 45 µM throughout.
Consider `O=C(c1cc(-c2ccc3c(c2)OCO3)on1)N1CCN(c2ccc(F)cc2)CC1` [Compound 279], for which the IC50 on human SCD1 and on human SCD5 was greater than 45 µM each time.
`O=C(c1ccccc1)N1CCN(C(=O)c2cc(-c3ccc4c(c3)OCO4)on2)CC1` [Compound 281]: the IC50 on human SCD1 and on human SCD5 was greater than 45 µM in each case.
Turning to `O=C(c1cc(-c2ccc3c(c2)OCO3)on1)N1CCN(c2cccc(F)c2)CC1` [Compound 282], the IC50 on human SCD1 and against human SCD5 was greater than 45 µM throughout.
`O=C(c1cc(-c2ccccc2)on1)N1CCN(c2ccc(F)cc2)CC1` [Compound 283]: the half-maximal inhibitory concentration (IC50) against human SCD1 and against human SCD5 was greater than 45 µM throughout.
Turning to `O=C(c1cc(-c2ccccc2)on1)N1CCN(c2ccccc2F)CC1` [Compound 284], the IC50 at human SCD1 and against human SCD5 was greater than 45 µM throughout.
In the case of `O=C(NC1CCN(Cc2ccccc2)CC1)c1cc(-c2ccco2)on1` [Compound 285], the IC50 against human SCD1 and against human SCD5 was greater than 45 µM in each case.
For `O=C(NC1CCN(c2ccccc2)CC1)c1cc(-c2ccco2)on1` [Compound 286], the half-inhibitory concentration (IC50) against human SCD1 and against human SCD5 was greater than 45 µM in each case.
For `O=C(c1cc(-c2ccccc2)on1)N1CCC(Oc2ccccc2)CC1` [Compound 288, (4-phenoxy-1-piperidyl)-(5-phenylisoxazol-3-yl)methanone], the IC50 at human SCD1 is greater than 45 µM; on human SCD5, 4.16 µM.
The like results for `CC1(c2ccccc2)CCN(C(=O)c2cc(-c3ccc4c(c3)OCO4)on2)CC1` [Compound 290, 1-[5-(2H-1,3-benzodioxol-5-yl)-1,2-oxazole-3-carbonyl]-4-methyl-4-phenylpiperidine] were, in that order, greater than 45 µM and 2.94 µM.
With `O=C(c1cc(-c2ccc3c(c2)OCO3)on1)N1CCC(c2ccncc2)CC1` [Compound 293], the concentration for half-maximal inhibition (IC50) against human SCD1 and at human SCD5 was greater than 45 µM throughout.
For the compound `O=C(c1cc(-c2ccccc2)on1)N1CCN(c2cccc(F)c2)CC1` [Compound 294], the half-maximal inhibitory concentration (IC50) was 0.21 µM against human SCD1 and greater than 45 µM against human SCD5.
The corresponding values for `O=C(c1cc(-c2ccccc2)on1)N1CCC(O)(c2ccccc2)CC1` [Compound 296] are greater than 45 µM and greater than 45 µM.
In the case of `O=C(c1cc(-c2ccccc2)on1)N1CCN(c2cc(F)ccc2Cl)CC1` [Compound 297, (4-(2-chloro-5-fluorophenyl)piperazin-1-yl)(5-phenylisoxazol-3-yl)methanone], the half-inhibitory concentration (IC50) on human SCD1 worked out at 19 µM; against human SCD5 it was 5.58 µM.
As to `O=C(c1cc(-c2ccc3c(c2)OCO3)on1)N1CCC(Oc2ccccc2)CC1` [Compound 298, [5-(1,3-benzodioxol-5-yl)isoxazol-3-yl]-(4-phenoxy-1-piperidyl)methanone], the values for the half-inhibitory concentration (IC50) against human SCD1 and against human SCD5 were 6.22 µM and 2.92 µM, respectively.
Turning to `O=C(c1cc(-c2ccc3c(c2)OCO3)on1)N1CCN(c2cc(F)ccc2Cl)CC1` [Compound 299, [5-(1,3-benzodioxol-5-yl)isoxazol-3-yl]-[4-(2-chloro-5-fluoro-phenyl)piperazin-1-yl]methanone], the concentration for half-maximal inhibition (IC50) was greater than 45 µM against human SCD1 and 8.68 µM on human SCD5.
The corresponding values for `CNC(=O)c1ccccc1-c1cc(C(=O)N2CCC(c3ccccc3)CC2)no1` [Compound 301, N-methyl-2-[3-(4-phenylpiperidine-1-carbonyl)isoxazol-5-yl]benzamide] are greater than 45 µM and 6.58 µM.
The corresponding values for `CNC(=O)c1cccc(-c2cc(C(=O)N3CCC(c4ccccc4)CC3)no2)c1` [Compound 303] are greater than 45 µM and greater than 45 µM.
The like results for `O=C(Nc1cnnc(Oc2ccccc2)c1)c1cc(-c2ccccc2)on1` [Compound 311] were, in that order, greater than 45 µM and greater than 45 µM.
In the case of `O=C(Nc1ccnc(Oc2ccccc2)c1)c1cc(-c2ccccc2)on1` [Compound 312], the IC50 against human SCD1 and against human SCD5 was greater than 45 µM in each case.
Regarding `O=C(c1cc(-c2ccncc2)on1)N1CCC(c2ccccc2)CC1` [Compound 313, (4-phenylpiperidin-1-yl)(5-(pyridin-4-yl)isoxazol-3-yl)methanone, trifluoroacetic acid], the IC50 worked out at 0.41 µM against human SCD1 and 1.54 µM against human SCD5.
The corresponding values for `O=C(c1cc(-c2ccccc2)on1)N1CCC(c2ccccc2)CC1` [Compound 314, (5-phenylisoxazol-3-yl)(4-phenylpiperidin-1-yl)methanone] are greater than 45 µM and 1.63 µM.
On to `O=C(c1cc(-c2cccnc2)on1)N1CCC(c2ccccc2)CC1` [Compound 315, (4-phenylpiperidin-1-yl)(5-(pyridin-3-yl)isoxazol-3-yl)methanone, trifluoroacetic acid salt], for which the IC50 was 3.84 µM on human SCD1 and 1.06 µM against human SCD5.
The like results for `N#Cc1ccc(-c2cc(C(=O)N3CCC(c4ccccc4)CC3)no2)cc1` [Compound 316, 4-(3-(4-phenylpiperidine-1-carbonyl)isoxazol-5-yl)benzonitrile] were, in that order, greater than 45 µM and 0.7 µM.
The like results for `N#Cc1cccc(-c2cc(C(=O)N3CCC(c4ccccc4)CC3)no2)c1` [Compound 317] were, in that order, greater than 45 µM and greater than 45 µM.
The like results for `O=C(c1cc(-c2ccccn2)on1)N1CCC(c2ccccc2)CC1` [Compound 318] were, in that order, greater than 45 µM and 14.1 µM.
Consider `CNC(=O)c1ccc(-c2cc(C(=O)N3CC=C(c4ccccc4)CC3)no2)cc1` [Compound 319], for which the 50% inhibitory concentration (IC50) against human SCD1 and against human SCD5 was greater than 45 µM throughout.
On to `COc1ccccc1-c1cc(C(=O)N2CCC(c3ccccc3)CC2)no1` [Compound 320], for which the IC50 at human SCD1 and on human SCD5 was greater than 45 µM throughout.
As to `O=C(c1cc(-c2ccccc2)on1)N1CCC(c2cccnc2)CC1` [Compound 322], the IC50 on human SCD1 and against human SCD5 was greater than 45 µM in each case.
Consider `C=C(C)c1cc(C(=O)N2CCC3(CCc4c(F)cccc4O3)CC2)no1` [Compound 324], for which the IC50 against human SCD1 was greater than 45 µM; against human SCD5, 3.8 µM.
The like results for `N#Cc1ccccc1-c1cc(C(=O)N2CCC(c3ccccc3)CC2)no1` [Compound 326, 2-(3-(4-phenylpiperidine-1-carbonyl)isoxazol-5-yl)benzonitrile] were, in that order, greater than 45 µM and 5.7 µM.
As for `O=C(c1cc(-c2ccc3c(c2)OCO3)on1)N1Cc2ccccc2C1` [Compound 328], the half-maximal inhibitory concentration (IC50) on human SCD1 and at human SCD5 was greater than 45 µM throughout.
As for `O=C(c1cc(-c2ccc3c(c2)OCO3)on1)N1CCC(c2ccccc2)C1` (centres unmarked) [Compound 329], the IC50 on human SCD1 and against human SCD5 was greater than 45 µM throughout.
Consider `O=C(c1cc(-c2ccccc2)on1)N1CCC(c2ccccc2)C1` (centres unmarked) [Compound 330], for which the IC50 is greater than 45 µM against human SCD1 and 2.6 µM against human SCD5.
The like results for `O=C(c1cc(-c2ccc3c(c2)OCO3)on1)N1CCCC1c1ccccc1C(F)F` (centres unmarked) [Compound 331] were, in that order, greater than 45 µM and 6.18 µM.
For `O=C(c1cc(-c2ccccc2)on1)N1CCC(c2ccc(F)cc2)C1` (centres unmarked) [Compound 334], the half-maximal inhibitory concentration (IC50) against human SCD1 and against human SCD5 was greater than 45 µM throughout.
For `O=C(c1cc(-c2ccccc2)on1)N1CCC(c2ccccc2F)C1` (centres unmarked) [Compound 335], the half-inhibitory concentration (IC50) against human SCD1 and on human SCD5 was greater than 45 µM each time.
With `O=C(NC1CCNC1)c1cc(-c2ccco2)on1` (centres unmarked) [Compound 336], the IC50 at human SCD1 and on human SCD5 was greater than 45 µM each time.
In the case of `O=C(NC1CCN(Cc2ccccc2)C1)c1cc(-c2ccco2)on1` (centres unmarked) [Compound 337], the concentration for half-maximal inhibition (IC50) against human SCD1 and against human SCD5 was greater than 45 µM each time.
As to `O=C(c1cc(-c2ccco2)on1)N1CCC(c2ccccc2)C1` (centres unmarked) [Compound 338], the figures for the half-maximal inhibitory concentration (IC50) on human SCD1 and on human SCD5 were greater than 45 µM and 2.79 µM, respectively.
With `O=C(c1cc(-c2ccccc2)on1)N1CCC2(CCNC2)C1` (centres unmarked) [Compound 340], the IC50 at human SCD1 and on human SCD5 was greater than 45 µM throughout.
In the case of `CN1CCC2(CCN(C(=O)c3cc(-c4ccccc4)on3)C2)C1` (centres unmarked) [Compound 342], the half-maximal inhibitory concentration (IC50) on human SCD1 and at human SCD5 was greater than 45 µM each time.
As for `CC(C)(C)OC(=O)N1CC2(C1)CN(C(=O)c1cc(-c3ccccc3)on1)C2` [Compound 344], the 50% inhibitory concentration (IC50) at human SCD1 and against human SCD5 was greater than 45 µM throughout.
For `O=C(c1cc(-c2ccccc2)on1)N1CC2(CNC2)C1` [Compound 345], the IC50 against human SCD1 and against human SCD5 was greater than 45 µM throughout.
In the case of `O=C(c1cc(-c2ccccc2C(F)(F)F)on1)N1CCC(c2ccccc2)C1` (centres unmarked) [Compound 346], the half-inhibitory concentration (IC50) is greater than 45 µM against human SCD1 and 7.35 µM against human SCD5.
The like results for `CNC(=O)c1cc(C(=O)N2CCC(c3ccccc3)C2)no1` (centres unmarked) [Compound 347] were, in that order, 4.19 µM and 5.28 µM.
The corresponding values for `NC(=O)c1cc(C(=O)N2CCC(c3ccccc3)C2)no1` (centres unmarked) [Compound 348] are 7.61 µM and greater than 45 µM.
The like results for `CC(C)c1cc(C(=O)N2CCC(c3ccccc3)C2)no1` (centres unmarked) [Compound 349] were, in that order, greater than 45 µM and greater than 45 µM.
In the case of `O=C(c1cc(-c2ccccn2)on1)N1CCC(c2cccc(F)c2)C1` (centres unmarked) [Compound 352], the IC50 was greater than 45 µM against human SCD1 and 9 µM against human SCD5.
The corresponding values for `Cc1cc(C2CCCN2C(=O)c2cc(-c3ccc4c(c3)OCO4)on2)on1` (centres unmarked) [Compound 353] are greater than 45 µM and greater than 45 µM.
The corresponding values for `Cc1cc(C2CCCN2C(=O)c2cc(-c3ccco3)on2)on1` (centres unmarked) [Compound 357] are greater than 45 µM and greater than 45 µM.
With `O=C(c1cc(-c2ccc3c(c2)OCO3)on1)N1CCCC1c1ccccn1` (centres unmarked) [Compound 361], the IC50 on human SCD1 and against human SCD5 was greater than 45 µM each time.
